Results from PubChem BioAssay AID256 (DTP/NCI, 2004).
Where “and” joins values, the source holds several entries; their conditions need not be identical. Identical values can stand only once. Toxic doses and inconclusive results are not listed.

Tested on: CD2F1 mice, L1210 leukemia ip, survival T/C
Test: NCI In Vivo Anticancer Drug Screen. Data for tumor model L1210 Leukemia (intraperitoneal) in CD2F1 (CDF1) mice
Details: higher = longer survival
How it was run: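 Compound-dosed mice with transplantable tumor versus matched vehicle controls; endpoint ratio T/C reported.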

[1] = endpoint: mean survival time, dose: 100.0 mg/kg/injection, schedule: Q01DX001 (ip), vehicle: saline with Tween-80
[2] = endpoint: mean survival time, dose: 200.0 mg/kg/injection, schedule: Q01DX001 (ip), vehicle: saline with Tween-80
[3] = endpoint: mean survival time, dose: 400.0 mg/kg/injection, schedule: Q01DX001 (ip), vehicle: saline with Tween-80
[4] = endpoint: mean survival time, dose: 100.0 mg/kg/injection, schedule: Q04DX002 (ip), vehicle: saline with Tween-80
[5] = endpoint: mean survival time, dose: 200.0 mg/kg/injection, schedule: Q04DX002 (ip), vehicle: saline with Tween-80
[6] = endpoint: mean survival time, dose: 100.0 mg/kg/injection, schedule: Q01DX001 (ip), vehicle: saline
[7] = endpoint: mean survival time, dose: 200.0 mg/kg/injection, schedule: Q01DX001 (ip), vehicle: saline
[8] = endpoint: mean survival time, dose: 400.0 mg/kg/injection, schedule: Q01DX001 (ip), vehicle: saline
[9] = endpoint: mean survival time, dose: 100.0 mg/kg/injection, schedule: Q04DX003 (ip), vehicle: saline with Tween-80
[10] = endpoint: mean survival time, dose: 200.0 mg/kg/injection, schedule: Q04DX003 (ip), vehicle: saline with Tween-80
[11] = endpoint: mean survival time, dose: 400.0 mg/kg/injection, schedule: Q04DX003 (ip), vehicle: saline with Tween-80
[12] = endpoint: mean survival time, dose: 100.0 mg/kg/injection, schedule: Q01DX001 (ip), vehicle: Klucel (hydroxypropylcellulose) (HPC)
[13] = endpoint: mean survival time, dose: 200.0 mg/kg/injection, schedule: Q01DX001 (ip), vehicle: Klucel (hydroxypropylcellulose) (HPC)
[14] = endpoint: mean survival time, dose: 400.0 mg/kg/injection, schedule: Q01DX001 (ip), vehicle: Klucel (hydroxypropylcellulose) (HPC)
[15] = endpoint: mean survival time, dose: 100.0 mg/kg/injection, schedule: Q01DX009 (ip), vehicle: saline with Tween-80
[16] = endpoint: mean survival time, dose: 200.0 mg/kg/injection, schedule: Q01DX009 (ip), vehicle: saline with Tween-80
[17] = endpoint: mean survival time, dose: 400.0 mg/kg/injection, schedule: Q01DX009 (ip), vehicle: saline with Tween-80
[18] = endpoint: mean survival time, dose: 50.0 mg/kg/injection, schedule: Q01DX009 (ip), vehicle: saline with Tween-80

In the case of `COC(=O)CC1(C(=O)OC)Nc2ccccc2C(=O)O1` (centres undefined), the T/C [1] is reported as 94 % of control, the T/C [2] is reported as 96 % of control and the T/C [3] is reported as 96 % of control.

`COC(CNC1=C(C)C(=O)C2=C(C1=O)[C@H](COC(N)=O)[C@]1(OC)[C@@H]3N[C@@H]3CN21)OC` was tested, and the T/C (endpoint: mean survival time, dose: 1.5 mg/kg/injection, schedule: Q01DX001 (ip), vehicle: water) was 118 % of control, the T/C (endpoint: mean survival time, dose: 3.0 mg/kg/injection, schedule: Q01DX001 (ip), vehicle: water) was 119 % of control and 109 % of control and the T/C (endpoint: mean survival time, dose: 6.0 mg/kg/injection, schedule: Q01DX001 (ip), vehicle: water) was 119 % of control. The T/C (endpoint: mean survival time, dose: 24.0 mg/kg/injection, schedule: Q01DX001 (ip), vehicle: water) was 151 % of control and 296 % of control and the T/C (endpoint: mean survival time, dose: 48.0 mg/kg/injection, schedule: Q01DX001 (ip), vehicle: water) was 86 % of control.

In the case of `CC(C)(C)C1CC[N-]CC1.CC(C)(C)C1CC[N-]CC1.O=[N+]([O-])O.O=[N+]([O-])O.[Pt+2]`, the T/C (endpoint: mean survival time, dose: 50.0 mg/kg/injection, schedule: Q04DX002 (ip), vehicle: saline with Tween-80) is reported as 98 % of control, the T/C [4] is reported as 98 % of control and the T/C [5] is reported as 95 % of control.

For `CC(=O)OCCC/C(=C/c1c[nH]c2ccccc12)[N+](=O)[O-]`, the T/C [6] was 97 % of control, the T/C [7] was 102 % of control and the T/C [8] was 109 % of control.

In the case of `Cc1cc(CSc2ssc(=S)c2-c2ccccc2)c(CSc2ssc(=S)c2-c2ccccc2)cc1C`, the T/C [1] is reported as 98 % of control, the T/C [2] is reported as 98 % of control and the T/C [3] is reported as 97 % of control.

`NCCN` was tested, and the T/C [1] was 106 % of control and the T/C [3] was 97 % of control.

In the case of `CC(=O)CC(=O)C(C)(C)C(C)=O`, the T/C [1] is reported as 98 % of control, the T/C (endpoint: mean survival time, dose: 100.0 mg/kg/injection, schedule: Q01DX009 (ip), vehicle: saline sonified) is reported as 97 % of control and the T/C [4] is reported as 117 % of control. For the same compound, the T/C [2] was 104 % of control, the T/C (endpoint: mean survival time, dose: 200.0 mg/kg/injection, schedule: Q01DX009 (ip), vehicle: saline sonified) was 105 % of control and the T/C [5] was 102 % of control. For the same compound, the T/C [3] was 101 % of control, the T/C (endpoint: mean survival time, dose: 400.0 mg/kg/injection, schedule: Q01DX009 (ip), vehicle: saline sonified) was 100 % of control and the T/C (endpoint: mean survival time, dose: 400.0 mg/kg/injection, schedule: Q04DX002 (ip), vehicle: saline with Tween-80) was 98 % of control.

With `C=C(CC(=O)OC)C(=O)O` the T/C (endpoint: mean survival time, dose: 12.5 mg/kg/injection, schedule: Q01DX009 (ip), vehicle: saline) was 98 % of control, the T/C (endpoint: mean survival time, dose: 25.0 mg/kg/injection, schedule: Q01DX009 (ip), vehicle: saline) was 98 % of control and the T/C (endpoint: mean survival time, dose: 50.0 mg/kg/injection, schedule: Q01DX009 (ip), vehicle: saline) was 107 % of control. The T/C [9] was 95 % of control, the T/C [10] was 98 % of control and the T/C [11] was 97 % of control.

In the case of `CC(=O)OC1C(N=[N+]=[N-])C(OC(C)=O)C(OC(C)=O)C(OC(C)=O)C1OC(C)=O` (centres undefined), the T/C [12] is reported as 93 % of control, the T/C [13] is reported as 95 % of control and the T/C [14] is reported as 103 % of control.

With `O=S1(=O)CCC1` the T/C (endpoint: mean survival time, dose: 75.0 mg/kg/injection, schedule: Q01DX001 (ip), vehicle: saline) was 114 % of control, the T/C (endpoint: mean survival time, dose: 150.0 mg/kg/injection, schedule: Q01DX001 (ip), vehicle: saline) was 97 % of control and the T/C (endpoint: mean survival time, dose: 300.0 mg/kg/injection, schedule: Q01DX001 (ip), vehicle: saline) was 105 % of control.

With `O=C1NC2C=CC3C=CC=CC2C13` (centres undefined) the T/C (endpoint: median survival time, dose: 25.0 mg/kg/injection, schedule: Q04DX002 (ip), vehicle: saline with Tween-80) was 100 % of control, the T/C (endpoint: median survival time, dose: 50.0 mg/kg/injection, schedule: Q04DX002 (ip), vehicle: saline with Tween-80) was 100 % of control and the T/C (endpoint: median survival time, dose: 100.0 mg/kg/injection, schedule: Q04DX002 (ip), vehicle: saline with Tween-80) was 100 % of control. The T/C (endpoint: median survival time, dose: 200.0 mg/kg/injection, schedule: Q04DX002 (ip), vehicle: saline with Tween-80) was 100 % of control.

`CN(Cc1ccccc1)C(=O)C(=O)c1c[nH]c2ccccc12` was tested, and the T/C [15] was 95 % of control, the T/C [9] was 98 % of control and the T/C [16] was 89 % of control. The T/C [10] was 87 % of control, the T/C [17] was 91 % of control and the T/C [11] was 90 % of control.

In the case of `O=C(O)C1CCOC1=O` (centres undefined), the T/C (endpoint: mean survival time, dose: 50.0 mg/kg/injection, schedule: Q04DX002 (ip), vehicle: saline) is reported as 107 % of control, the T/C (endpoint: mean survival time, dose: 100.0 mg/kg/injection, schedule: Q04DX002 (ip), vehicle: saline) is reported as 98 % of control and the T/C (endpoint: mean survival time, dose: 200.0 mg/kg/injection, schedule: Q04DX002 (ip), vehicle: saline) is reported as 98 % of control.

In the case of `COC1OC(COC(C)=O)C(OC2OC(COC(C)=O)C(OC(C)=O)C(OC(C)=O)C2OC(C)=O)C(OC(C)=O)C1OC(C)=O` (centres undefined), the T/C [15] is reported as 98 % of control, the T/C [16] is reported as 104 % of control and the T/C [17] is reported as 106 % of control.

For `O=C(C=C(C(F)(F)Cl)C(F)(F)Cl)c1cccs1`, the T/C (endpoint: mean survival time, dose: 5.0 mg/kg/injection, schedule: Q04DX003 (ip), vehicle: saline) was 98 % of control, the T/C (endpoint: mean survival time, dose: 10.0 mg/kg/injection, schedule: Q04DX003 (ip), vehicle: saline) was 104 % of control and the T/C (endpoint: mean survival time, dose: 20.0 mg/kg/injection, schedule: Q04DX003 (ip), vehicle: saline) was 103 % of control.

For `Cc1c(Cc2ccccc2)[n+](=O)c2ccccc2n1[O-]`, the T/C [9] was 97 % of control, the T/C [10] was 101 % of control and the T/C [11] was 98 % of control.

In the case of `CCO/N=C(\N)c1ccccc1`, the T/C [18] is reported as 106 % of control, the T/C [6] is reported as 111 % of control and the T/C [15] is reported as 98 % of control. The T/C [7] was 108 % of control, the T/C [16] was 100 % of control and the T/C [8] was 104 % of control.

`O=c1cc(Cc2ccccc2)[nH]c(=S)[nH]1` was tested, and the T/C [12] was 94 % of control, the T/C [13] was 95 % of control and the T/C [14] was 89 % of control.

With `COc1ccc(C(N)=O)cc1N=NN(C)C` the T/C (endpoint: mean survival time, dose: 37.5 mg/kg/injection, schedule: Q01DX009 (ip), vehicle: Klucel (hydroxypropylcellulose) (HPC)) was 158 % of control and the T/C (endpoint: mean survival time, dose: 75.0 mg/kg/injection, schedule: Q01DX009 (ip), vehicle: Klucel (hydroxypropylcellulose) (HPC)) was 109 % of control.

For `Oc1cc(O)c2c(c1)OC(c1ccc(O)c(O)c1)C(OC1(c3cc(O)c(O)c(O)c3)Oc3cc(O)cc(O)c3C(O)C1O)C2` (centres undefined), the T/C (endpoint: mean survival time, dose: 100.0 mg/kg/injection, schedule: Q04DX003 (ip), vehicle: saline) was 109 % of control, the T/C (endpoint: mean survival time, dose: 200.0 mg/kg/injection, schedule: Q04DX003 (ip), vehicle: saline) was 95 % of control and the T/C (endpoint: mean survival time, dose: 400.0 mg/kg/injection, schedule: Q04DX003 (ip), vehicle: saline) was 107 % of control.

In the case of `COC(=O)Nc1nc2ccccc2[nH]1`, the T/C [1] is reported as 98 % of control, the T/C [2] is reported as 91 % of control and the T/C [3] is reported as 96 % of control. For the same compound, the T/C (endpoint: mean survival time, dose: 500.0 mg/kg/injection, schedule: Q04DX003 (ip), vehicle: saline with Tween-80) was 119 % of control, the T/C (endpoint: mean survival time, dose: 600.0 mg/kg/injection, schedule: Q04DX003 (ip), vehicle: saline with Tween-80) was 122 % of control and the T/C (endpoint: mean survival time, dose: 800.0 mg/kg/injection, schedule: Q04DX003 (ip), vehicle: saline with Tween-80) was 111 % of control.

For `O=C(CNC(=O)Nc1cccc(C(F)(F)F)c1)N/N=C/c1ccco1`, the T/C [18] was 92 % of control, the T/C [15] was 92 % of control and the T/C [16] was 88 % of control.

For `Oc1ccc(CCCl)cc1`, the T/C [18] was 91 % of control, the T/C [15] was 102 % of control and the T/C [16] was 102 % of control.

`CCCN(CCC)S(=O)(=O)c1ccc(NC(=O)OC2CCCCCCC2)cc1` was tested, and the T/C [6] was 92 % of control, the T/C [7] was 98 % of control and the T/C [8] was 101 % of control.

With `ClC1C2CCC(C2)C1(Cl)Cl` (centres undefined) the T/C (endpoint: mean survival time, dose: 0.3 mg/kg/injection, schedule: Q01DX001 (ip), vehicle: saline with Tween-80) was 100 % of control, the T/C (endpoint: mean survival time, dose: 0.6 mg/kg/injection, schedule: Q01DX001 (ip), vehicle: saline with Tween-80) was 103 % of control and the T/C (endpoint: mean survival time, dose: 1.2 mg/kg/injection, schedule: Q01DX001 (ip), vehicle: saline with Tween-80) was 102 % of control.
